US20260356824A1, “COMPOUNDS FOR TREATING FIBROTIC DISEASES” (Meta-Immue Inc., priority 2023, published 2026)

What was measured:
[1] = Liver microsomal stability, rat; assay type: in vitro ADME; details: rat liver microsomes; 30 min; percent of parent remaining; read-out: Liver Microsomal stability (%), % of remaining after 30 min, Rat
[2] = system: A2058 cells; test: Chemotaxis Assay (LPA-induced migration of A2058 cells); assay type: cell-based; details: Homo sapiens, 4 to 8 hours, crystal violet 590 nm
Outline: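 A2058 cells, starved 24 hr and treated with test compound or vehicle, were placed on a fibronectin-coated membrane ([…]) above […] in DMEM. After 4–8 h migration, migrated cells were crystal violet stained and read at 590 nm. Values are relative percentage of control.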

[3] = Liver microsomal stability, human; assay type: in vitro ADME; details: human liver microsomes; 30 min; percent of parent remaining; read-out: Liver Microsomal stability (%), % of remaining after 30 min, Human
[4] = biological target: T1, BSEP (Homo sapiens, UniProt O95342); test: Bile Salt Export Pump (BSEP) Assay, Sf9 insect cell vesicles expressing BSEP; assay type: in vitro ADME; details: 10 μM test compound, probe substrate 1 μM [3H]-taurocholic acid, 15 min incubation
T1 construct: ATP-dependent uptake of radiolabelled probe substrate
T1 sequence (O95342 whole entry): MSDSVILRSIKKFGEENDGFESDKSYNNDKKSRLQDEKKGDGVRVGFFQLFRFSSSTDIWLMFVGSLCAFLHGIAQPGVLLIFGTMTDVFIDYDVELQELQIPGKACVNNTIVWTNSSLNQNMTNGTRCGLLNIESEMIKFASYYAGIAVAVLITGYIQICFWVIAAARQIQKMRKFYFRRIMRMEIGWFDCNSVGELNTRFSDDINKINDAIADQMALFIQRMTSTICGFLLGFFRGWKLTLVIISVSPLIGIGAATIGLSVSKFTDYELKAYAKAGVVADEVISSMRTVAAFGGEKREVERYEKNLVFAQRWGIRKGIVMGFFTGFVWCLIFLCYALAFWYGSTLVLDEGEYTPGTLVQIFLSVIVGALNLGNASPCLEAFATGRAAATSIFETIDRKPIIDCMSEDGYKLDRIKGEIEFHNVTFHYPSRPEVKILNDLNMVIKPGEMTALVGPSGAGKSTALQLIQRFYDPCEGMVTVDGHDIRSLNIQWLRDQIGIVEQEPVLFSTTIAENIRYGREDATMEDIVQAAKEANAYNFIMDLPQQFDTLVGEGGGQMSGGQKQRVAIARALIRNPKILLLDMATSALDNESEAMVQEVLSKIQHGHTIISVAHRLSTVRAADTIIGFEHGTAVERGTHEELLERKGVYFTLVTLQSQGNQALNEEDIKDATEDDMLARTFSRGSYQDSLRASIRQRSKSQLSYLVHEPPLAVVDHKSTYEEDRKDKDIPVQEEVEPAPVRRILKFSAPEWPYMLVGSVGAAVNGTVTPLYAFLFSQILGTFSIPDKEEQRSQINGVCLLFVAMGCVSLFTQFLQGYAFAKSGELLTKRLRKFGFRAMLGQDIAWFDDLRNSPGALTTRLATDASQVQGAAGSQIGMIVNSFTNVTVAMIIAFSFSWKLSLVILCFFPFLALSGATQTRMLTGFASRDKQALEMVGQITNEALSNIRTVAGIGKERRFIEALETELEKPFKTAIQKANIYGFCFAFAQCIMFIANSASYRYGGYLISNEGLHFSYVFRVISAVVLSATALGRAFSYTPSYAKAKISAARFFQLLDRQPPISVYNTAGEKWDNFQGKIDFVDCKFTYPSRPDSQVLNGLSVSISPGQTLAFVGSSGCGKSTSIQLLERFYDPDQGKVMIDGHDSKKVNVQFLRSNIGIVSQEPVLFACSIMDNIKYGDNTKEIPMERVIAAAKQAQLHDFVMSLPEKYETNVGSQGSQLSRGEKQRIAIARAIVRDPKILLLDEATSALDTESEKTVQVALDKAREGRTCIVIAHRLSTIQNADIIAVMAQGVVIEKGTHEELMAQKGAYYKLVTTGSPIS
Description: • 1. A stock solution was prepared with the test article (Sponsor compound) in DMSO. • 2. All final assay solutions of probe substrate, reference inhibitor or test article contain 0.5% (v/v) DMSO (vehicle control). • 3. Test article concentrations in transport study were specified in the Summary Table of Experimental Conditions of this protocol.
• 1. Bovine Serum Albumin (BSA) • 2. Dimethyl sulfoxide (DMSO) • 3. BSEP Assay Uptake Buffer (10 mM HEPES-Tris pH 7.4, 0.1 M KNO3, 12.5 mM Mg(NO3)2, 50 mM sucrose) • 4. BSEP Wash Buffer (10 mM Tris-HCl pH 7.4, 0.1 M KNO3, 50 mM sucrose) • 5. BSEP Blocking Buffer (BSEP Wash Buffer+0.5 mg/mL BSA) • 6. 25 mM Mg-ATP solution • 7. 25 mM AMP solution • 8. Corning Costar 96-well flat-bottom, untreated, white Assay Plate (Corning Cat. No. 3912) • 9. Millipore MultiscreenHTs Filtration Plate, glass fiber FB—1.0/0.65 μm (Cat. No. MSFBN6B10 or glass fiber FC—1.2/0.65 μm (Cat. No. MSFCN6B10) • 10. Millipore MultiscreenHTS Vacuum Manifold (Cat. No. MSVMHTS00) • 11. Probe substrates listed in Table 1 • 12. Reference inhibitors listed in Table 1 • 13. Test articles
• 1. Test system: • a. 96-well flat bottom plate containing a suspension of vesicles and a corresponding 96-well glass fiber filtration plate. • b. Transport experiments were conducted in the Assay Uptake Buffer. • c. Transport experiment was initiated with the addition of Mg-ATP or AMP to appropriate wells. • d. Each condition was run in triplicate wells. • 2. Prepared the 96-well flat-bottom assay plate. • a. Incubated the assay plate with the Blocking Buffer for 60 min at 37 °C with orbital shaking at approximately 90 rpm. (NOTE: This is done to prevent non-specific binding of vesicles to polystyrene assay plate). • b. After 60 min, completely removed the Blocking Buffer from the assay plate. • c. The Assay Uptake Buffer solutions were added to the assay plate wells as follows: • i. For probe substrate transport assays, the Assay Uptake Buffer contained vesicles and the probe substrate at the specified concentration. • ii. For the reference inhibition assay, the Assay Uptake Buffer contained vesicles, the reference inhibitor and the probe substrate at the specified concentration in Table 1. • iii. For the test article assays, Assay Uptake Buffer contained vesicles, the test article and the probe substrate at the specified concentration in Table 1. • 3. Incubate at 37 °C with orbital shaking at approximately 90 rpm for the time period specified in Table 1 of this protocol. • 4. Using the 25 mM Mg-ATP or AMP stocks, Mg-ATP or AMP was added to test wells of flat bottom assay plate to a final concentration of 5 mM. • 5. Incubated at 37 °C with orbital shaking at approximately 90 rpm for the incubation time specified in Table 1 of this protocol. • 6. Prepared the 96-well glass fiber filtration plate: • a. Incubated the filtration plate with the Blocking Buffer for 2 min at room temperature with under no vacuum. • b. Turned on vacuum and allowed Blocking Buffer to filter through plate. • c. With vacuum on, filter plate was washed with ice cold Wash Buffer. • 7. At the end of the specified incubation time indicated in […] of this protocol, vesicle transport was quenched by adding ice cold Wash Buffer to samples in 96-well assay plate. • 8. Mixed assay samples (now diluted in Wash Buffer) with pipette and transfered 175 μL into the 96-well glass fiber filtration plate to separate vesicles from buffer by applying vacuum. • 9. Washed filter plate wells with ice cold Wash Buffer. • 10. Allowed filter plate to dry under vacuum. • 11. Transfered filters to scintillation sample plate and added 700 μL of scintillation fluid to the above samples. • 12. Counted the above samples on a 1450 Microbeta (Perkin-Elmer).
• 1. The amount of substrate was quantified with radiometric detection on a 1450 Microbeta (Perkin-Elmer). • 2. For transport study samples run in triplicate, the mean and standard deviation of the replicates were reported. • 3. […]

[5] = biological target: T2, hLPAR1 (Homo sapiens, UniProt Q92633); test: Ca2+ Flux Assay (B103 cells stably expressing hLPAR1); assay type: cell-based; details: LPA-induced calcium release, Fura-2 AM, compound 20 min at RT
T2 construct: expressed in transfected cells
T2 sequence (Q92633 whole entry): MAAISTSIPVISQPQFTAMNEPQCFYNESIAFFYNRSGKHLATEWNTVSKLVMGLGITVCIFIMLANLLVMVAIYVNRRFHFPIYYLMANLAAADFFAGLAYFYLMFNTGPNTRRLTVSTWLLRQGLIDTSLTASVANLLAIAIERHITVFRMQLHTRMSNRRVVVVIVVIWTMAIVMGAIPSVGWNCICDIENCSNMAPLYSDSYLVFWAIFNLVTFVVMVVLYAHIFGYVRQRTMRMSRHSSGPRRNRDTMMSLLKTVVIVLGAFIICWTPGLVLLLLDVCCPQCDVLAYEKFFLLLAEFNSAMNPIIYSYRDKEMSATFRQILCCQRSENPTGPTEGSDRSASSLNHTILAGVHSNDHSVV
Outline: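 Fura-2 AM (5 μM) loaded 40 min at RT in HBSS/20 mM HEPES/probenecid/0.3% fatty-acid-free BSA after 2 h serum starvation. Compounds preincubated 20 min at RT, then LPA […] added. Intracellular calcium mobilization read as fluorescence intensity.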

Compound | remaining at 0.5 h [1] [%] | IC50 [2] [nM] | remaining at 0.5 h [3] [%] | IC50 [5] [nM] | inhibition at 0.25 h, 10 µM [4] [%]
Cc1noc(C2CCN(c3ccc(C4(C(=O)NS(=O)(=O)CCC(=O)O)CC4)cc3)CC2)c1NC(=O)O[C@H](C)c1ccccc1 [Compound 83] | > 75 | < 100 | > 75 | < 10 | ≤ 25
Cc1noc(C2CCN(c3ccc(C4(C(=O)NS(=O)(=O)CCCC(=O)O)CC4)cc3)CC2)c1NC(=O)O[C@H](C)c1ccccc1 [Compound 84] | > 75 | 100 to 500 | 50 to 75 | < 10 | ≤ 25
Cc1noc(C2CCN(c3ccc(C4(C(=O)O)CC4)cc3)CC2)c1NC(=O)O[C@H](C)c1ccccc1 [Compound 87, 1-(4-{4-[3-methyl-4-({[(1R)-1-phenylethoxy]carbonyl}amino)-1,2-oxazol-5-yl]piperidin-1-yl}phenyl)cyclopropane-1-carboxylic acid] | > 75 | < 100 | > 75 | < 10 | 25 to 50

Further lines, with some results ahead:

remaining at 0.5 h [1] [%] | IC50 [2] [nM] | remaining at 0.5 h [3] [%] | IC50 [5] [nM] | Compound | inhibition at 0.25 h, 10 µM [4] [%]
50 to 75 | < 100 | > 75 | < 10 | Cc1noc(C2CCN(c3ccc(C4(C(=O)NS(=O)(=O)CCCO)CC4)cc3)CC2)c1NC(=O)O[C@H](C)c1ccccc1 [Compound 85] | ≤ 25
> 75 | 100 to 500 | > 75 | < 10 | CNS(=O)(=O)NC(=O)C1(c2ccc(N3CCC(c4onc(C)c4NC(=O)O[C@H](C)c4ccccc4)CC3)cc2)CC1 [Compound 86] | 50 to 75
50 to 75 | < 100 | 50 to 75 | < 10 | Cc1nsc(C2CCN(c3ccc(C4(C(=O)NS(=O)(=O)C(F)(F)F)CC4)cc3)CC2)c1NC(=O)O[C@H](C)c1ccccc1 [Compound 94] | 75 to 100
